In article PMC6358866 (International Journal of Molecular Sciences, 2019):

Key:
[1] = system: Staphylococus aureus ATCC 6538 biofilm; assay: Activity against biofilms on 96-well plates after withdrawal of the antimicrobial (additional 24 h in MHB II); type: cell-based, Staphylococcus aureus; conditions: after withdrawal and additional 24 h in MHB II
Experimental: (§1) Bacterial strains were obtained from the Polish Collection of Microorganisms (Polish Academy of Science, Wroclaw, Poland). Three Gram-positive and two Gram-negative strains linked with CL-related infections were chosen for the study (Staphylococus aureus ATCC 6538, Staphylococcus epidermidis ATCC 14990, Pseudomonas aeruginosa ATCC 9027, Escherichia coli ATCC 25922, and Enterococcus faecalis ATCC 29212). The bacteria were cultured in a Mueller Hinton Broth II (MHB, Biocorp, Warsaw, Poland) overnight, under aerobic conditions at 37 °C. […] Bacterial suspensions were added to 96-well plates (Kartell, Noviglio, Italy) at initial inoculums of ca. 5 × 10^8 CFU/mL and incubated under aerobic conditions with shaking (120 rpm) at 37 °C for 24 h. […] After exposure, the wells were washed three times with PBS and a solution of resazurin (Sigma Aldrich, St. […] This cell viability reagent is metabolized by bacterial dehydrogenases upon contact with living cells. As a result, the blue dye is reduced to a pink resorufin. After 1.5 h of incubation, the absorbance was measured at 570 and 600 nm using a microplate reader (Thermo Fisher Scientific, Waltham, MA, USA). […] The procedure was conducted as described in Section 4.3, with the difference that after exposure to antimicrobials, the wells were washed three times with PBS and pure MHB II was added. The samples were incubated for another 24 h (aerobic conditions, 120 rpm shaking, 37 °C). […] The absorbance was measured at the same wave lengths and metabolic activity was calculated according to the formula given in Section 4.3. The presented results are means of nine results obtained on three different days.

[2] = system: Enterococcus faecalis ATCC 29212 biofilm; assay: as above; type: cell-based; conditions: after withdrawal and additional 24 h in MHB II; for concentration permanently eradicating the biofilm: EF biofilm on polystyrene
Experimental: as §1

[3] = system: Escherichia coli ATCC 25922 biofilm; assay: as above; type: cell-based; conditions: after withdrawal and additional 24 h in MHB II
Experimental: as §1

[4] = system: Pseudomonas aeruginosa ATCC 9027 biofilm; assay: as above; type: cell-based; conditions: lowest concentration giving permanent reduction of metabolic activity by at least 50 ± 5%; after withdrawal and additional 24 h in MHB II
Experimental: as §1

[5] = system: Staphylococcus epidermidis ATCC 14990 biofilm; assay: as above; type: cell-based; conditions: after withdrawal and additional 24 h in MHB II
Experimental: as §1

[6] = system: Escherichia coli ATCC 25922 biofilm on CLs; assay: Activity of lipopeptide and CL liquids against biofilms formed on contact lenses; type: cell-based; conditions: EC biofilm on CLs, lipopeptide in PBS, 24 h, resazurin
Experimental: (§2) Bacterial strains were obtained from the Polish Collection of Microorganisms (Polish Academy of Science, Wroclaw, Poland). Three Gram-positive and two Gram-negative strains linked with CL-related infections were chosen for the study (Staphylococus aureus ATCC 6538, Staphylococcus epidermidis ATCC 14990, Pseudomonas aeruginosa ATCC 9027, Escherichia coli ATCC 25922, and Enterococcus faecalis ATCC 29212). The bacteria were cultured in a Mueller Hinton Broth II (MHB, Biocorp, Warsaw, Poland) overnight, under aerobic conditions at 37 °C. After incubation, the liquid cultures were centrifuged (2500 rpm for 10 min) and washed with phosphoric buffer (PBS, AppliChem, Darmstadt, Germany) three times and resuspended in fresh MHB II for inoculums appropriate for the performed assays.
(§3) Bacterial biofilms were cultured on commercially available CLs (1-Day Acuvue Moist, containing Etafilcon A, obtained from Johnson and Johnson Vision Care, Jacksonsville, FL, USA). The CLs were placed in polystyrene 24-well plates (Orange Scientific, Braine-l’Alleud, Belgium) in bacterial suspensions in MHB II at initial inoculums of ca. 5 × 10^8 CFU/mL. After 24 h of incubation (aerobic conditions, 120 rpm shaking, 37 °C), all of the CLs were rinsed three times with PBS. […] After incubation, resazurin was added (final concentration per sample = 0.01%) and absorbance was measured as in the assays 4.3 and 4.4. Positive controls contained CLs with bacterial biofilms placed in pure PBS, while sterile CLs incubated in MHB II replaced with PBS served as negative controls. The experiments were performed in triplicate on three different days.

[7] = system: Pseudomonas aeruginosa ATCC 9027 biofilm on CLs; assay: as above; type: cell-based; conditions: PA biofilm on CLs, lipopeptide in PBS, 24 h, resazurin
Experimental: as §2, §3

[8] = system: Staphylococcus epidermidis ATCC 14990 biofilm on CLs; assay: as above; type: cell-based; conditions: SE biofilm on CLs, lipopeptide in PBS, 24 h, resazurin
Experimental: as §2, §3

[9] = system: Staphylococus aureus ATCC 6538 biofilm on CLs; assay: as above; type: cell-based, Staphylococcus aureus; conditions: SA biofilm on CLs, lipopeptide in PBS, 24 h, resazurin
Experimental: as §2
as §3, with “Positive controls contained CLs with bacterial biofilms placed in pure PBS, while sterile CLs incubated in MHB II replaced with PBS served as negative controls. The experiments were performed in triplicate on three different days.” left out

[10] = system: Enterococcus faecalis ATCC 29212 biofilm on CLs; assay: Lipopeptide, lens liquids and combinations against biofilms on CLs after withdrawal of the antimicrobial solution; type: cell-based; conditions: EF biofilm on CLs, after withdrawal and 24 h in MHB II
Experimental: as §2, §3
(§4) The assay was also performed for the samples where biofilms on CLs were exposed to pure CL solutions. Positive controls (100%) were biofilms on CLs in PBS, while negative controls were CLs previously incubated in pure MHB II replaced for the exposure time with PBS. After 24 h of exposure (aerobic conditions, 120 rpm shaking, 37 °C) all the solutions were removed, replaced with MHB II and the samples were incubated for another 24 h. Resazurin was then added in order to visualize the results. The results were read, calculated, and presented as in the previously-described sections.

[11] = system: Escherichia coli ATCC 25922 biofilm on CLs; assay: as above; type: cell-based; conditions: EC biofilm on CLs, all tested concentrations, after withdrawal and 24 h in MHB II
Experimental: as §2, §3, §4

[12] = system: Pseudomonas aeruginosa ATCC 9027 biofilm on CLs; assay: as above; type: cell-based; conditions: PA biofilm on CLs, all tested concentrations, after withdrawal and 24 h in MHB II
Experimental: as §2, §3, §4

[13] = system: Staphylococcus epidermidis ATCC 14990 biofilm on CLs; assay: as above; type: cell-based; conditions: SE biofilm on CLs, lipopeptide in PBS, after withdrawal and 24 h in MHB II
Experimental: as §2, §3, §4

[14] = system: Staphylococus aureus ATCC 6538 biofilm on CLs; assay: as above; type: cell-based, Staphylococcus aureus; conditions: SA biofilm on CLs, lipopeptide in PBS, after withdrawal and 24 h in MHB II
Experimental: as §2
Bacterial biofilms were cultured on commercially available CLs (1-Day Acuvue Moist, containing Etafilcon A, obtained from Johnson and Johnson Vision Care, Jacksonsville, FL, USA). […] After incubation, resazurin was added (final concentration per sample = 0.01%) and absorbance was measured as in the assays 4.3 and 4.4. […]
The assay was also performed for the samples where biofilms on CLs were exposed to pure CL solutions. […] The results were read, calculated, and presented as in the previously-described sections.

[15] = lowest concentration giving permanent reduction of metabolic activity by at least 50 ± 5%
[16] = lowest concentration giving permanent reduction of metabolic activity by at least 90 ± 5%

(C10)2-KKKK-NH2 [Lipopeptide]
concentration permanently eliminating living bacterial cells ([1]; SA biofilm on polystyrene): 32 mg/L | MBEC II 50 [1, 15]: 16 µg/mL | MBEC II 90 [1, 16]: 32 µg/mL | concentration permanently eradicating the biofilm ([2]; listed as (C10)2-KKKK-NH2): 32 mg/L | concentration permanently eradicating the biofilm ([2]; listed as lipopeptide): 32 to 256 mg/L | MBEC II 50 [2, 15]: 32 µg/mL | MBEC II 90 [2, 16]: 32 µg/mL | MBEC II 50 [3, 15]: 64 µg/mL | MBEC II 90 [3, 16]: 64 µg/mL | MBEC II 50 [4]: 64 µg/mL | concentration giving a permanent antibiofilm effect ([5]; SE biofilm on polystyrene): 16 mg/L | MBEC II 50 [5, 15]: 16 µg/mL | MBEC II 90 [5, 16]: 16 µg/mL | concentration reducing metabolic activity by more than 90% [6]: 32 mg/L | concentration reducing metabolic activity by more than 90% [7]: 32 mg/L | concentration reducing metabolic activity of bacteria by at least 90% [8]: 8 mg/L | concentration reducing metabolic activity of bacteria by at least 90% [9]: 16 mg/L | effect on biofilm after removal of the agent [10]: promoted bacterial growth | regrowth of bacterial population after removal [11]: ca. 50% | regrowth of bacterial population after removal [12]: fully restored | concentration permanently removing biofilm from CLs [13]: 16 mg/L | concentration permanently removing biofilm from CLs [14]: 16 mg/L
